These molecules were tested against T1, full length AKT E17K (Homo sapiens, UniProt P31749, E17K) (assay: NanoBRET Target Engagement (TE) Assay). Settings: competitive displacement of tracer in cells, read-out: AKT1 E17K IC50.
T1 construct: host or cells: HEK-293 (ATCC CRL-1573)
Assay type: cell-based
How it was run: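 Compound and tracer incubated 2 h before luminescence at donor 450 nm and acceptor 600 nm, with extracellular signal inhibited. EC50 by sigmoidal variable-slope regression.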

T1 sequence (P31749 whole entry E17K): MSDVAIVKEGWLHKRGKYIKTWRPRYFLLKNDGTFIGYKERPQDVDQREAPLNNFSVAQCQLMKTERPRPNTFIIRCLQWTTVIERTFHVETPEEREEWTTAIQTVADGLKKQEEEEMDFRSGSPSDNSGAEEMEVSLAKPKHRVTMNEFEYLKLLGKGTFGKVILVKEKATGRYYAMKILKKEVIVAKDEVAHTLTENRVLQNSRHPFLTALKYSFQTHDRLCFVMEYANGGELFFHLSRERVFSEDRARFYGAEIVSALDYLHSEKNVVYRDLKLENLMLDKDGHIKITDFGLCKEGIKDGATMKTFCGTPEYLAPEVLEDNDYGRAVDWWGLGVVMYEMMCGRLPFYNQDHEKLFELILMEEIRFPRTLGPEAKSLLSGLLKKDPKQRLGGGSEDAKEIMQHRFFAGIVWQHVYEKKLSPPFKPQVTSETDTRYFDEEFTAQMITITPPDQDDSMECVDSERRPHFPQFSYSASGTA

| SMILES | IC50 [nM] |
| --- | --- |
| N#Cc1ccnc(N2C[C@@H]3C[C@H]2CN3Cc2ccc(-n3c(-c4cccnc4N)nc4ccc(-c5ccccc5)nc43)cc2)n1 [Example 377, 2-((1S,4S)-5-(4-(2-(2-Aminopyridin-3-yl)-5-phenyl-3H-imidazo[4,5-b]pyridin-3-yl)benzyl)-2,5-diazabicyclo[2.2.1]heptan-2-yl)pyrimidine-4-carbonitrile] | 60 to 600 |
| N#Cc1nccc(NC2CCN(Cc3ccc(-n4c(-c5cccnc5N)nc5ccc(-c6cn(CF)nn6)nc54)cc3)CC2)n1 [Example 619, 4-((1-(4-(2-(2-Aminopyridin-3-yl)-5-(1-(fluoromethyl)-1H-1,2,3-triazol-4-yl)-3H-imidazo[4,5-b]pyridin-3-yl)benzyl)piperidin-4-yl)amino)pyrimidine-2-carbonitrile] | < 15 |
| N#Cc1nccc(NC2CCN(Cc3ccc(-n4c(-c5cccnc5N)nc5ccc(-c6cccc(Cl)c6)nc54)cc3)CC2)n1 [Example 353, 4-((1-(4-(2-(2-Aminopyridin-3-yl)-5-(3-chlorophenyl)-3H-imidazo[4,5-b]pyridin-3-yl)benzyl)piperidin-4-yl)amino)pyrimidine-2-carbonitrile] | 60 to 600 |
| [2H]C([2H])(F)n1cc(-c2ccc3nc(-c4cccnc4N)n(-c4ccc(CN5CCC(Nc6ccnc(C#N)n6)CC5)cc4)c3n2)ccc1=O [Example 624, 4-((1-(4-(2-(2-Aminopyridin-3-yl)-5-(1-(fluoromethyl-d2)-6-oxo-1,6-dihydropyridin-3-yl)-3H-imidazo[4,5-b]pyridin-3-yl)benzyl)piperidin-4-yl)amino)pyrimidine-2-carbonitrile] | 15 to 60 |
| N#Cc1ncnc(N[C@@H]2CCCN(Cc3ccc(-n4c(-c5cccnc5N)nc5ccc(-c6ccccc6)nc54)cc3)C2)n1 [Example 337, (R)-4-((1-(4-(2-(2-Aminopyridin-3-yl)-5-phenyl-3H-imidazo[4,5-b]pyridin-3-yl)benzyl)piperidin-3-yl)amino)-1,3,5-triazine-2-carbonitrile] | < 15 |
| N#Cc1nccc(NC2CCN(Cc3ccc(-n4c(-c5cccnc5N)nc5ccc(-c6ccc(C(F)F)cn6)nc54)cc3)CC2)n1 [Example 649, 4-((1-(4-(2-(2-Aminopyridin-3-yl)-5-(5-(difluoromethyl)pyridin-2-yl)-3H-imidazo[4,5-b]pyridin-3-yl)benzyl)piperidin-4-yl)amino)pyrimidine-2-carbonitrile] | < 15 |
| Cc1oncc1-c1ccc2nc(-c3cccnc3N)n(-c3ccc(CN4CCC(Nc5ccnc(C#N)n5)CC4)cc3)c2n1 [Example 463, 4-((1-(4-(2-(2-Aminopyridin-3-yl)-5-(5-methylisoxazol-4-yl)-3H-imidazo[4,5-b]pyridin-3-yl)benzyl)piperidin-4-yl)amino)pyrimidine-2-carbonitrile] | < 15 |
| N#Cc1nccc(N2C[C@@H]3C[C@H]2CN3Cc2ccc(-n3c(-c4cccnc4N)nc4ccc(-c5ccccc5)nc43)cc2)n1 [Example 375, 4-((1S,4S)-5-(4-(2-(2-Aminopyridin-3-yl)-5-phenyl-3H-imidazo[4,5-b]pyridin-3-yl)benzyl)-2,5-diazabicyclo[2.2.1]heptan-2-yl)pyrimidine-2-carbonitrile] | 15 to 60 |
| [2H]c1nc(OC([2H])([2H])[2H])ccc1-c1ccc2nc(-c3cccnc3N)n(-c3ccc(CN4CCC(Nc5ccnc(C#N)n5)CC4)cc3)c2n1 [Example 597, 4-((1-(4-(2-(2-aminopyridin-3-yl)-5-(6-(methoxy-d3)pyridin-3-yl-2-d)-3H-imidazo[4,5-b]pyridin-3-yl)benzyl)piperidin-4-yl)amino)pyrimidine-2-carbonitrile] | < 15 |
| N#Cc1nccc(NC2CCN(Cc3ccc(-n4c(-c5cccnc5N)nc5ccc(-c6ccc(OC7CC7)nc6)nc54)cc3)CC2)n1 [Example 641, 4-((1-(4-(2-(2-Aminopyridin-3-yl)-5-(6-cyclopropoxypyridin-3-yl)-3H-imidazo[4,5-b]pyridin-3-yl)benzyl)piperidin-4-yl)amino)pyrimidine-2-carbonitrile] | < 15 |

Now from value to molecule:

| IC50 [nM] | SMILES |
| --- | --- |
| 60 to 600 | N#Cc1nccc(NC2CCN(Cc3ccc(-n4c(-c5cccnc5N)nc5ccc(N6CCOCC6=O)nc54)cc3)CC2)n1 [Example 387, 4-((1-(4-(2-(2-Aminopyridin-3-yl)-5-(3-oxomorpholino)-3H-imidazo[4,5-b]pyridin-3-yl)benzyl)piperidin-4-yl)amino)pyrimidine-2-carbonitrile] |
| < 15 | N#Cc1nccc(N2CC3(CCN(Cc4ccc(-n5c(-c6cccnc6N)nc6ccc(-c7ccc(F)cc7)nc65)cc4)CC3)C2)n1 [Example 490, 4-(7-(4-(2-(2-Aminopyridin-3-yl)-5-(4-fluorophenyl)-3H-imidazo[4,5-b]pyridin-3-yl)benzyl)-2,7-diazaspiro[3.5]nonan-2-yl)pyrimidine-2-carbonitrile] |
| < 15 | N#Cc1nccc(NC2CCN(Cc3ccc(-n4c(-c5cccnc5N)nc5ccc(C6CCCC6)nc54)cc3)CC2)n1 [Example 388, 4-((1-(4-(2-(2-Aminopyridin-3-yl)-5-cyclopentyl-3H-imidazo[4,5-b]pyridin-3-yl)benzyl)piperidin-4-yl)amino)pyrimidine-2-carbonitrile] |
| < 15 | N#Cc1ncnc(N2CCN(Cc3ccc(-n4c(-c5cccnc5N)nc5ccc(-c6ccccc6)nc54)cc3)CC2)n1 [Example 328, 4-(4-(4-(2-(2-aminopyridin-3-yl)-5-phenyl-3H-imidazo[4,5-b]pyridin-3-yl)benzyl)piperazin-1-yl)-1,3,5-triazine-2-carbonitrile] |
| < 15 | Cn1ncnc1-c1ccc2nc(-c3cccnc3N)n(-c3ccc(CN4CCC(Nc5ccnc(C#N)n5)CC4)cc3)c2n1 [Example 567, 4-((1-(4-(2-(2-Aminopyridin-3-yl)-5-(1-methyl-1H-1,2,4-triazol-5-yl)-3H-imidazo[4,5-b]pyridin-3-yl)benzyl)piperidin-4-yl)amino)pyrimidine-2-carbonitrile] |
| 15 to 60 | N#Cc1ncnc(N2CCN(Cc3ccc(-n4c(-c5cccnc5N)nc5ccc(-c6ccc(Cl)cc6)nc54)cc3)CC2)n1 [Example 369, 4-(4-(4-(2-(2-Aminopyridin-3-yl)-5-(4-chlorophenyl)-3H-imidazo[4,5-b]pyridin-3-yl)benzyl)piperazin-1-yl)-1,3,5-triazine-2-carbonitrile] |

Same assay, conditions: competitive tracer displacement in living cells, read-out: AKT1 E17K IC50

| SMILES | IC50 [nM] |
| --- | --- |
| N#Cc1ncnc(N2CC3CCC(C2)N3Cc2ccc(-n3c(-c4cccnc4N)nc4ccc(N5CCOCC5)nc43)cc2)n1 [Example 285, 4-(8-(4-(2-(2-Aminopyridin-3-yl)-5-morpholino-3H-imidazo[4,5-b]pyridin-3-yl)benzyl)-3,8-diazabicyclo[3.2.1]octan-3-yl)-1,3,5-triazine-2-carbonitrile] | < 15 |
| N#Cc1cc(NC2C3CCC2CN(Cc2ccc(-n4c(-c5cccnc5N)nc5ccc(-c6ccccc6)nc54)cc2)C3)ncn1 (stereo not drawn) [Example 202, 6-((3-(4-(2-(2-Aminopyridin-3-yl)-5-phenyl-3H-imidazo[4,5-b]pyridin-3-yl)benzyl)-3-azabicyclo[3.2.1]octan-8-yl)amino)pyrimidine-4-carbonitrile] | 600 to 10000 |
| N#Cc1ccnc(C(=O)NCc2ccc(-n3c(-c4cccnc4N)nc4cccnc43)cc2)c1 [Example 147, N-(4-(2-(2-Aminopyridin-3-yl)-3H-imidazo[4,5-b]pyridin-3-yl)benzyl)-4-cyanopicolinamide] | 600 to 10000 |
| N#Cc1cc(C(=O)NC2CCN(Cc3ccc(-n4c(-c5cccnc5N)nc5ccc(-c6ccccc6)nc54)cc3)CC2)ccn1 [Example 55, N-(1-(4-(2-(2-Aminopyridin-3-yl)-5-phenyl-3H-imidazo[4,5-b]pyridin-3-yl)benzyl)piperidin-4-yl)-2-cyanoisonicotinamide] | 15 to 60 |
| N#Cc1cncc(C(=O)N2CCN(Cc3ccc(-n4c(-c5cccnc5N)nc5ccc(-c6ccccc6)nc54)cc3)CC2)c1 [Example 139, 5-(4-(4-(2-(2-Aminopyridin-3-yl)-5-phenyl-3H-imidazo[4,5-b]pyridin-3-yl)benzyl)piperazine-1-carbonyl)nicotinonitrile] | 600 to 10000 |
| N#Cc1ccnc(OC2CCN(Cc3ccc(-n4c(-c5cccnc5N)nc5ccc(-c6ccccc6)nc54)cc3)CC2)c1 [Example 8, 2-((1-(4-(2-(2-Aminopyridin-3-yl)-5-phenyl-3H-imidazo[4,5-b]pyridin-3-yl)benzyl)piperidin-4-yl)oxy)isonicotinonitrile] | 600 to 10000 |

More lines, now with the values ahead:

| IC50 [nM] | SMILES |
| --- | --- |
| 60 to 600 | N#Cc1nnccc1C(=O)N1CCN(Cc2ccc(-n3c(-c4cccnc4N)nc4ccc(-c5ccccc5)nc43)cc2)CC1 [Example 70, 4-(4-(4-(2-(2-Aminopyridin-3-yl)-5-phenyl-3H-imidazo[4,5-b]pyridin-3-yl)benzyl)piperazine-1-carbonyl)pyridazine-3-carbonitrile] |
| 600 to 10000 | N#Cc1ccncc1C(=O)N1CCN(Cc2ccc(-n3c(-c4cccnc4N)nc4cccnc43)cc2)CC1 [Example 155, 3-(4-(4-(2-(2-Aminopyridin-3-yl)-3H-imidazo[4,5-b]pyridin-3-yl)benzyl)piperazine-1-carbonyl)isonicotinonitrile] |
| 15 to 60 | N#Cc1ccnc(N2CCN(Cc3ccc(-n4c(-c5cccnc5N)nc5ccc(N6CCCNC(=O)C6)nc54)cc3)CC2)n1 [Example 283, 2-(4-(4-(2-(2-Aminopyridin-3-yl)-5-(3-oxo-1,4-diazepan-1-yl)-3H-imidazo[4,5-b]pyridin-3-yl)benzyl)piperazin-1-yl)pyrimidine-4-carbonitrile] |
| 600 to 10000 | N#Cc1cnccc1C(=O)N1CCN(Cc2ccc(-n3c(-c4cccnc4N)nc4cccnc43)cc2)CC1 [Example 154, 4-(4-(4-(2-(2-Aminopyridin-3-yl)-3H-imidazo[4,5-b]pyridin-3-yl)benzyl)piperazine-1-carbonyl)nicotinonitrile] |
| < 15 | N#Cc1cc(C(=O)N2CCN(Cc3ccc(-n4c(-c5cccnc5N)nc5ccc(-c6ccccc6)nc54)cc3)CC2)ncn1 [Example 116, 6-(4-(4-(2-(2-Aminopyridin-3-yl)-5-phenyl-3H-imidazo[4,5-b]pyridin-3-yl)benzyl)piperazine-1-carbonyl)pyrimidine-4-carbonitrile] |

Reference: patent publication US12209087B2, “AKT1 modulators” (Alterome Therapeutics, Inc., priority 2022, dated 2025)
